According to the NIST ThermoML archive (doi:10.1016/j.fluid.2010.03.010):

Details: Liquid, Vibrating tube method

CCCCn1cc[n+](C)c1.N#CN=C=[N-] [1-butyl-3-methylimidazolium dicyanamide]
Details | mass density [kg/m3]
293.15 K, 100 kPa | 1064.4
293.15 K, 101.33 kPa | 1063.73
293.15 K, 250 kPa | 1064.4
293.15 K, 500 kPa | 1064.5
293.15 K, 1000 kPa | 1064.7
293.15 K, 2000 kPa | 1065.1
293.15 K, 4990 kPa | 1066.2
293.15 K, 10010 kPa | 1068.2
293.15 K, 15000 kPa | 1070
293.15 K, 20000 kPa | 1071.9
293.15 K, 25000 kPa | 1073.6
293.15 K, 30000 kPa | 1075.4
293.15 K, 35000 kPa | 1077.1
293.15 K, 40000 kPa | 1078.9
293.15 K, 45000 kPa | 1080.5
293.15 K, 50000 kPa | 1082.2
293.15 K, 55000 kPa | 1083.8
293.15 K, 60000 kPa | 1085.4
294.15 K, 101.33 kPa | 1063.09
295.15 K, 101.33 kPa | 1062.45
296.15 K, 101.33 kPa | 1061.81
297.15 K, 101.33 kPa | 1061.17
298.15 K, 101.33 kPa | 1060.53
299.15 K, 101.33 kPa | 1059.89
300.15 K, 101.33 kPa | 1059.26
301.15 K, 101.33 kPa | 1058.62
302.15 K, 101.33 kPa | 1057.99
303.15 K, 100 kPa | 1057.9
303.15 K, 101.33 kPa | 1057.35
303.15 K, 250 kPa | 1057.9
303.15 K, 500 kPa | 1058
303.15 K, 1000 kPa | 1058.2
303.15 K, 2000 kPa | 1058.6
303.15 K, 4990 kPa | 1059.8
303.15 K, 10000 kPa | 1061.8
303.15 K, 14990 kPa | 1063.6
303.15 K, 20010 kPa | 1065.5
303.15 K, 25000 kPa | 1067.4
303.15 K, 30000 kPa | 1069.2
303.15 K, 34990 kPa | 1070.9
303.15 K, 40000 kPa | 1072.7
303.15 K, 45000 kPa | 1074.4
303.15 K, 50000 kPa | 1076.1
303.15 K, 55000 kPa | 1077.8
303.15 K, 60000 kPa | 1079.4
304.15 K, 101.33 kPa | 1056.72
305.15 K, 101.33 kPa | 1056.09
306.15 K, 101.33 kPa | 1055.45
307.15 K, 101.33 kPa | 1054.82
308.15 K, 101.33 kPa | 1054.19
309.15 K, 101.33 kPa | 1053.56
310.15 K, 101.33 kPa | 1052.93
311.15 K, 101.33 kPa | 1052.31
312.15 K, 101.33 kPa | 1051.68
313.15 K, 100 kPa | 1051.5
313.15 K, 101.33 kPa | 1051.05
313.15 K, 250 kPa | 1051.5
313.15 K, 500 kPa | 1051.6
313.15 K, 1000 kPa | 1051.8
313.15 K, 2000 kPa | 1052.3
313.15 K, 4990 kPa | 1053.4
313.15 K, 10000 kPa | 1055.5
313.15 K, 14990 kPa | 1057.4
313.15 K, 20010 kPa | 1059.4
313.15 K, 25000 kPa | 1061.2
313.15 K, 30000 kPa | 1063.1
313.15 K, 35000 kPa | 1064.9
313.15 K, 40010 kPa | 1066.7
313.15 K, 45000 kPa | 1068.4
313.15 K, 50000 kPa | 1070.2
313.15 K, 55010 kPa | 1071.9
313.15 K, 60000 kPa | 1073.6
314.15 K, 101.33 kPa | 1050.43
315.15 K, 101.33 kPa | 1049.8
316.15 K, 101.33 kPa | 1049.18
317.15 K, 101.33 kPa | 1048.56
318.15 K, 101.33 kPa | 1047.94
319.15 K, 101.33 kPa | 1047.32
320.15 K, 101.33 kPa | 1046.7
321.15 K, 101.33 kPa | 1046.08
322.15 K, 101.33 kPa | 1045.46
323.15 K, 100 kPa | 1045.2
323.15 K, 101.33 kPa | 1044.84
323.15 K, 250 kPa | 1045.3
323.15 K, 500 kPa | 1045.4
323.15 K, 1000 kPa | 1045.6
323.15 K, 2010 kPa | 1046
323.15 K, 4990 kPa | 1047.3
323.15 K, 10010 kPa | 1049.3
323.15 K, 14990 kPa | 1051.3
323.15 K, 20010 kPa | 1053.3
323.15 K, 25000 kPa | 1055.2
323.15 K, 30010 kPa | 1057.1
323.15 K, 34990 kPa | 1058.9
323.15 K, 40000 kPa | 1060.8
323.15 K, 45000 kPa | 1062.6
323.15 K, 50000 kPa | 1064.4
323.15 K, 55000 kPa | 1066.1
323.15 K, 60000 kPa | 1067.8
324.15 K, 101.33 kPa | 1044.22
325.15 K, 101.33 kPa | 1043.61
326.15 K, 101.33 kPa | 1042.99
327.15 K, 101.33 kPa | 1042.37
328.15 K, 101.33 kPa | 1041.76
329.15 K, 101.33 kPa | 1041.14
330.15 K, 101.33 kPa | 1040.53
331.15 K, 101.33 kPa | 1039.92
332.15 K, 101.33 kPa | 1039.3
333.15 K, 100 kPa | 1039
333.15 K, 101.33 kPa | 1038.69
333.15 K, 250 kPa | 1039.1
333.15 K, 500 kPa | 1039.2
333.15 K, 1000 kPa | 1039.4
333.15 K, 2000 kPa | 1039.9
333.15 K, 4990 kPa | 1041.1
333.15 K, 10000 kPa | 1043.2
333.15 K, 15000 kPa | 1045.2
333.15 K, 20000 kPa | 1047.3
333.15 K, 25000 kPa | 1049.2
333.15 K, 30000 kPa | 1051.3
333.15 K, 34990 kPa | 1053.1
333.15 K, 40000 kPa | 1055
333.15 K, 45010 kPa | 1056.8
333.15 K, 50000 kPa | 1058.6
333.15 K, 55000 kPa | 1060.4
333.15 K, 60000 kPa | 1062.2
334.15 K, 101.33 kPa | 1038.08
335.15 K, 101.33 kPa | 1037.47
336.15 K, 101.33 kPa | 1036.86
337.15 K, 101.33 kPa | 1036.25
338.15 K, 101.33 kPa | 1035.64
339.15 K, 101.33 kPa | 1035.03
340.15 K, 101.33 kPa | 1034.42
341.15 K, 101.33 kPa | 1033.82
342.15 K, 101.33 kPa | 1033.21
343.15 K, 100 kPa | 1032.9
343.15 K, 101.33 kPa | 1032.61
343.15 K, 250 kPa | 1033
343.15 K, 500 kPa | 1033.1
343.15 K, 1000 kPa | 1033.3
343.15 K, 2000 kPa | 1033.7
343.15 K, 4990 kPa | 1035
343.15 K, 10010 kPa | 1037.2
343.15 K, 15000 kPa | 1039.2
343.15 K, 20010 kPa | 1041.4
343.15 K, 25000 kPa | 1043.3
343.15 K, 30000 kPa | 1045.4
343.15 K, 35010 kPa | 1047.3
343.15 K, 40000 kPa | 1049.3
343.15 K, 45000 kPa | 1051.1
343.15 K, 50000 kPa | 1053
343.15 K, 55000 kPa | 1054.7
343.15 K, 60000 kPa | 1056.6
344.15 K, 101.33 kPa | 1032
345.15 K, 101.33 kPa | 1031.4
346.15 K, 101.33 kPa | 1030.79
347.15 K, 101.33 kPa | 1030.19
348.15 K, 101.33 kPa | 1029.59
349.15 K, 101.33 kPa | 1028.98
350.15 K, 101.33 kPa | 1028.38
351.15 K, 101.33 kPa | 1027.78
352.15 K, 101.33 kPa | 1027.18
353.15 K, 100 kPa | 1026.8
353.15 K, 101.33 kPa | 1026.58
353.15 K, 250 kPa | 1026.9
353.15 K, 500 kPa | 1027
353.15 K, 1000 kPa | 1027.2
353.15 K, 2000 kPa | 1027.7
353.15 K, 5000 kPa | 1029
353.15 K, 10000 kPa | 1031.3
353.15 K, 15000 kPa | 1033.4
353.15 K, 20000 kPa | 1035.5
353.15 K, 25000 kPa | 1037.5
353.15 K, 30010 kPa | 1039.6
353.15 K, 35000 kPa | 1041.6
353.15 K, 40000 kPa | 1043.6
353.15 K, 45000 kPa | 1045.4
353.15 K, 50000 kPa | 1047.4
353.15 K, 55000 kPa | 1049.2
353.15 K, 60000 kPa | 1051
354.15 K, 101.33 kPa | 1025.98
355.15 K, 101.33 kPa | 1025.38
356.15 K, 101.33 kPa | 1024.79
357.15 K, 101.33 kPa | 1024.19
358.15 K, 101.33 kPa | 1023.59
359.15 K, 101.33 kPa | 1022.99
360.15 K, 101.33 kPa | 1022.4
361.15 K, 101.33 kPa | 1021.8
362.15 K, 101.33 kPa | 1021.21
363.15 K, 100 kPa | 1020.8
363.15 K, 101.33 kPa | 1020.61
363.15 K, 250 kPa | 1020.9
363.15 K, 500 kPa | 1021
363.15 K, 1000 kPa | 1021.3
363.15 K, 2000 kPa | 1021.7
363.15 K, 4990 kPa | 1023.1
363.15 K, 10000 kPa | 1025.4
363.15 K, 14990 kPa | 1027.6
363.15 K, 20010 kPa | 1029.8
363.15 K, 25010 kPa | 1031.8
363.15 K, 30000 kPa | 1033.9
363.15 K, 35000 kPa | 1035.9
363.15 K, 40000 kPa | 1038
363.15 K, 45000 kPa | 1039.9
363.15 K, 50000 kPa | 1041.8
363.15 K, 55000 kPa | 1043.7
363.15 K, 60000 kPa | 1045.6
373.15 K, 100 kPa | 1014.9
373.15 K, 250 kPa | 1015
373.15 K, 500 kPa | 1015.1
373.15 K, 1000 kPa | 1015.4
373.15 K, 2000 kPa | 1015.8
373.15 K, 4990 kPa | 1017.2
373.15 K, 10000 kPa | 1019.5
373.15 K, 15000 kPa | 1021.8
373.15 K, 20000 kPa | 1024
373.15 K, 25000 kPa | 1026.2
373.15 K, 30000 kPa | 1028.3
373.15 K, 35000 kPa | 1030.3
373.15 K, 40000 kPa | 1032.4
373.15 K, 45000 kPa | 1034.4
373.15 K, 50000 kPa | 1036.4
373.15 K, 55000 kPa | 1038.3
373.15 K, 60000 kPa | 1040.2
393.15 K, 100 kPa | 1003.2
393.15 K, 250 kPa | 1003.3
393.15 K, 500 kPa | 1003.4
393.15 K, 1000 kPa | 1003.7
393.15 K, 2000 kPa | 1004.1
393.15 K, 4990 kPa | 1005.6
393.15 K, 10010 kPa | 1008.1
393.15 K, 15000 kPa | 1010.4
393.15 K, 20010 kPa | 1012.8
393.15 K, 25000 kPa | 1015
393.15 K, 30000 kPa | 1017.2
393.15 K, 35000 kPa | 1019.4
393.15 K, 40000 kPa | 1021.6
393.15 K, 45000 kPa | 1023.6
393.15 K, 50000 kPa | 1025.7
393.15 K, 55000 kPa | 1027.7
393.15 K, 60000 kPa | 1029.6
